Numbering of substitutions follows the chain as printed.
Columns and labels:
PC9 cells = test: cells; conditions: Homo sapiens, PC-9, 48 h, read-out: % Viability PC9
GPX4^U46C = biological target: T1, GPX4^U46C (Homo sapiens, UniProt P36969, U73C); test: Intact protein MALDI MS analysis; type: binding; conditions: 150 μM
T1 construct: made in house; host or cells: E. coli BL21-Gold (DE3)
T1 sequence (P36969 1-170 isoform P36969-2 U46C): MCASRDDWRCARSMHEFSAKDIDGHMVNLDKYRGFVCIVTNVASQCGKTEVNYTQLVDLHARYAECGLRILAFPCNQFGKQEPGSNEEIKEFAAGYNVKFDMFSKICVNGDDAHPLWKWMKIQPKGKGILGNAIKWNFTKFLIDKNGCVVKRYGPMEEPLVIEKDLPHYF

GPX4 = biological target: T2, GPX4 (Homo sapiens, UniProt P36969); test: Cellular thermal shift assay (CETSA), GPX4; type: cell-based; design: To prepare the cell lysate containing native GPX4, A-673 cells were cultured; endogenous in cells; host or cells: A-673 cell lysate; conditions: 10 μM compound for 1 h
T2 sequence (P36969 1-170 isoform P36969-2): T1 sequence (P36969 1-170 isoform P36969-2 U46C) with C46U

GFP-GPX4^WT = biological target: T3, GFP-GPX4^WT (Homo sapiens, UniProt P36969); test: Degradation of GPX4 and GFP-GPX4^WT with MG-132; type: cell-based; conditions: 1.0 μM ± MG-132 (10 μM), 18 hours
T3 construct: expressed in transfected cells; host or cells: HT-1080 overexpressing GFP-GPX4^WT
T3 sequence (P36969 28-197): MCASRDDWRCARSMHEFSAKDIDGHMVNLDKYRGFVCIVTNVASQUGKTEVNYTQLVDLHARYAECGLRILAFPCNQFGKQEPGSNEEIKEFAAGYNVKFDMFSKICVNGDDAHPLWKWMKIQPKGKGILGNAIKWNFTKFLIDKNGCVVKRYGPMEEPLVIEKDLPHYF

GFP-GPX4^K125R_K127R = biological target: T4, GFP-GPX4^K125R_K127R (Homo sapiens, UniProt P36969, K152R/K154R); test: Degradation of GFP-GPX4^K125R_K127R in HT-1080 cells; type: cell-based
T4 construct: expressed in transfected cells
T4 sequence (P36969 28-197 K152R/K154R): as the sequence (P36969 28-197) above, with K125R, K127R counted along it

GPX1 = biological target: T5, GPX1 (Homo sapiens, UniProt P07203); test: Degradation of endogenous GPX1 in HT-1080 cells; type: cell-based; design: endogenous in cells
T5 sequence (P07203 1-203): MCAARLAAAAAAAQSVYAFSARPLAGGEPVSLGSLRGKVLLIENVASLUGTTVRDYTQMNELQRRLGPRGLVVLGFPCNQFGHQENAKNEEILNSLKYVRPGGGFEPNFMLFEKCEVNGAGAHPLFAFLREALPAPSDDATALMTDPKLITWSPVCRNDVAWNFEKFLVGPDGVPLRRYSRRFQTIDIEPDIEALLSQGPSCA

| SMILES | viability at 10 µM (PC9 cells) [%] | covalent binding to GPX4^U46C (mass shift) (GPX4^U46C) | thermal stability of GPX4 (GPX4) | GPX4 degradation with MG-132 (GFP-GPX4^WT) | selectivity in cancer cells compared to PBMCs (PBMCs) | degradation of GFP-GPX4^K125R_K127R (GFP-GPX4^K125R_K127R) | GPX1 degradation (GPX1) |
| --- | --- | --- | --- | --- | --- | --- | --- |
| Cn1nc(C(=O)NC(C)(C)COC(=O)CCl)c2ccc(Br)cc21 [QW-314] | 62 | – | – | – | – | – | – |
| CC(C)(COC(=O)CCl)NC(=O)c1nn(Cc2cc(Cl)cc(Cl)c2)c2cc(-c3ccc(N4CCOCC4)c(Cl)c3)ccc12 [QW-852] | – | lower potency than RSL3 to covalently bind to GPX4^U46C | stabilizing the protein | effectively blocked by MG-132 | Over 10 fold | but not by QW-852 | less effective at degrading GPX1 |

From US20250248979A1, “NOVEL GPX4 INHIBITORS AND USES THEREOF” (THE TRUSTEES OF COLUMBIA UNIVERSITY IN THE CITY OF NEW YORK, priority 2022, published 2025)
